The values that follow come from US11590116B2 (THERAVANCE BIOPHARMA R&D IP, LLC, priority 2019, dated 2023).

The target of test [1] is T1, recombinant human ALK5 (TGF-βR1) protein (Homo sapiens, UniProt P36897).
T1 construct: purchased Life Technologies PR9075A
T1 sequence (P36897 34-503): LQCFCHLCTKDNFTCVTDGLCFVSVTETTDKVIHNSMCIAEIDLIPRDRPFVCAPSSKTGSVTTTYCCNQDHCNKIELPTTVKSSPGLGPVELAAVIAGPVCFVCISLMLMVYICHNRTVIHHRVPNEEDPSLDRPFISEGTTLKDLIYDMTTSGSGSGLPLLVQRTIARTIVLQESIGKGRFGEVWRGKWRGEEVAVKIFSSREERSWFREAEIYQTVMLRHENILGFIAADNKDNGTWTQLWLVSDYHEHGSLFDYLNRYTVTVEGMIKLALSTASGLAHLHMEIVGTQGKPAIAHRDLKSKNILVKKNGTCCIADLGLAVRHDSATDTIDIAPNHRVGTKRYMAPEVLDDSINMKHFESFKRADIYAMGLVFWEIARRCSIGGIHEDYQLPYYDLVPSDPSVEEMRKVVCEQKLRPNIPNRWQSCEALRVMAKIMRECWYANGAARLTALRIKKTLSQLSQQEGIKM
In words: Biochemical ALK5 (TGF-βR1) assay to measure pKi (LANCE Ultra ULight kinase assay). The settings on record: apparent pKi from pIC50 by Cheng-Prusoff. The essentials:
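After a 60 min room-temperature preincubation of ALK5 with compound, phosphorylation proceeds 60 min at 37 °C on ATP addition (125 μM as 5× stock). Detection: Eu-labelled phospho-Thr1342 Topo IIα antibody in EDTA buffer, pH 7.0; emission 665 nm.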

The test system of test [2] is TGF-β-stimulated SMAD3 phosphorylation in BEAS-2B cells. Nature of the test: Cellular ALK5 potency assay, inhibition of TGF-β stimulated pSMAD3 formation in BEAS-2B cells. The settings on record: Homo sapiens, read-out: BEAS2B pIC50 (converted). It counts as cell-based. In outline: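 AlphaLISA pSMAD3 read-out, beads incubated overnight. Human BEAS-2B cells: 1 h compound preincubation (37 °C, 5% CO2), then 30 min TGF-β at 10 ng/mL final, immediate lysis. Values are pIC50 relative to stimulated, compound-free baseline.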

Setting [3] is: inhibition of TGF-β stimulated pSMAD3 formation, BEAS-2B cells.

Where two headings read alike, the source gives them in different places.

Take `Cc1cccc(-c2[nH]ncc2-c2ccc3ncc(C(=O)O[C@H]4CC[C@@H](N)CC4)cc3c2)n1` [Compound 1228, (4-aminocyclohexyl) 6-[5-(6-methyl-2-pyridyl)-1H-pyrazol-4-yl]quinoline-3-carboxylate]: the Ki in test [1] (read-out: ALK5 pKi (converted)) is 0.0398 to 0.316 nM. Further, in test [2] (setting [3]), the IC50 is 25.1 to 158 nM.

With `Cc1cccc(-c2[nH]cnc2-c2ccc3ncc(-c4cnn(C5CNC5)c4)cc3c2)n1` [Compound 434, 3-[1-(azetidin-3-yl)pyrazol-4-yl]-6-[5-(6-methyl-2-pyridyl)-1H-imidazol-4-yl]quinoline], in test [1] (read-out: ALK5 pKi (converted)), the Ki is less than 0.0316 nM. Moreover, in test [2] (setting [3]), the IC50 is 25.1 to 158 nM.

`Cc1cccc(-c2n[nH]cc2-c2ccc3ncc(-c4nc5n(n4)CCNC5)cc3c2)n1` [Compound 315, 6-[3-(6-methyl-2-pyridyl)-1H-pyrazol-4-yl]-3-(5,6,7,8-tetrahydro-[1,2,4]triazolo[1,5-a]pyrazin-2-yl)quinoline]: the Ki in test [1] (read-out: ALK5 pKi (converted)) is 0.0398 to 0.316 nM. The IC50 in test [2] (setting [3]) was 25.1 to 158 nM.

As for `Cc1cccc(-c2[nH]cnc2-c2ccc3ncc(-c4nc(C(=O)OCCN5C[C@@H](C)N[C@@H](C)C5)cs4)cc3c2)n1` [Compound 1226, 2-[(3R,5S)-3,5-dimethylpiperazin-1-yl]ethyl 2-[6-[5-(6-methyl-2-pyridyl)-1H-imidazol-4-yl]-3-quinolyl]thiazole-4-carboxylate], the Ki in test [1] (read-out: ALK5 pKi (converted)) was 0.0398 to 0.316 nM. Further, the IC50 in test [2] (setting [3]) was 25.1 to 158 nM.

Take `Cc1cccc(-c2[nH]cnc2-c2ccc3ncc(-c4ccnc(C(=O)OCC5CNC5)c4)cc3c2)n1` [Compound 1086, azetidin-3-ylmethyl 4-[6-[5-(6-methyl-2-pyridyl)-1H-imidazol-4-yl]-3-quinolyl]pyridine-2-carboxylate]: the Ki in test [1] (read-out: ALK5 pKi (converted)) was 0.0398 to 0.316 nM. In addition, the IC50 in test [2] (setting [3]) is 200 to 1260 nM.

Consider `Cc1cccc(-c2n[nH]cc2-c2ccc3nccc(N4CCC(N(C)C)C4)c3c2)n1` (racemic) [Compound 867, rac-(3S)-N,N-dimethyl-1-[6-[3-(6-methyl-2-pyridyl)-1H-pyrazol-4-yl]-4-quinolyl]pyrrolidin-3-amine], for which the Ki in test [1] (read-out: ALK5 pKi (converted)) is 0.398 to 3.16 nM. The IC50 in test [2] (setting [3]) is 200 to 1260 nM.

On to `Cc1cccc(-c2[nH]cnc2-c2ccc3ncc(C(=O)OCC4CCNCC4)cc3c2)n1` [Compound 741, 4-piperidylmethyl 6-[5-(6-methyl-2-pyridyl)-1H-imidazol-4-yl]quinoline-3-carboxylate], for which the Ki in test [1] (read-out: ALK5 pKi (converted)) is 0.0398 to 0.316 nM. Besides, the IC50 in test [2] (setting [3]) was 25.1 to 158 nM.

In the case of `Cc1cccc(-c2[nH]cnc2-c2ccc3ncc(-c4cncc(C(=O)O[C@@H]5CCNC5)c4)cc3c2)n1` [Compound 725, [(3R)-pyrrolidin-3-yl] 5-[6-[5-(6-methyl-2-pyridyl)-1H-imidazol-4-yl]-3-quinolyl]pyridine-3-carboxylate], the Ki in test [1] (read-out: ALK5 pKi (converted)) is 0.0398 to 0.316 nM. In addition, in test [2] (setting [3]), the IC50 is 25.1 to 158 nM.

On to `Cc1cccc(-c2[nH]cnc2-c2ccc3ncc(-c4ncc(CN5C[C@@H](C)N[C@@H](C)C5)s4)cc3c2)n1` [Compound 1028, 5-[[(3S,5R)-3,5-dimethylpiperazin-1-yl]methyl]-2-[6-[5-(6-methyl-2-pyridyl)-1H-imidazol-4-yl]-3-quinolyl]thiazole], for which the Ki in test [1] (read-out: ALK5 pKi (converted)) was 0.0398 to 0.316 nM. Besides, in test [2] (setting [3]), the IC50 was less than 20 nM.

Consider `Cc1cccc(-c2[nH]cnc2-c2ccc3nccc(C(=O)O[C@H]4CC[C@](C)(N)CC4)c3c2)n1` [Compound 1209, (4-amino-4-methyl-cyclohexyl) 6-[5-(6-methyl-2-pyridyl)-1H-imidazol-4-yl]quinoline-4-carboxylate], for which the Ki in test [1] (read-out: ALK5 pKi (converted)) was 0.398 to 3.16 nM. For the same compound, in test [2] (setting [3]), the IC50 was 25.1 to 158 nM.

Regarding `COc1nc(-c2ccc3ncc(Br)cc3c2)c(-c2cccc(C)n2)[nH]1` [Compound 1202, 3-bromo-6-[2-methoxy-5-(6-methyl-2-pyridyl)-1H-imidazol-4-yl]quinoline], the Ki in test [1] (read-out: ALK5 pKi (converted)) was 0.398 to 3.16 nM. Further, the IC50 in test [2] (setting [3]) was 25.1 to 158 nM.

Regarding `CNCc1ccnc2ccc(-c3c[nH]nc3-c3cccc(C)n3)nc12` [Compound 829, N-methyl-1-[6-[3-(6-methyl-2-pyridyl)-1H-pyrazol-4-yl]-1,5-naphthyridin-4-yl]methanamine], the Ki in test [1] (read-out: ALK5 pKi (converted)) is 0.398 to 3.16 nM. Besides, the IC50 in test [2] (setting [3]) is 25.1 to 158 nM.

Turning to `Cc1cccc(-c2[nH]ncc2-c2ccc3nccc(C(=O)OC[C@@H]4CCCCN4)c3c2)n1` [Compound 1085, [(2S)-2-piperidyl]methyl 6-[5-(6-methyl-2-pyridyl)-1H-pyrazol-4-yl]quinoline-4-carboxylate], the Ki in test [1] (read-out: ALK5 pKi (converted)) was 0.398 to 3.16 nM. Moreover, in test [2] (setting [3]), the IC50 was 25.1 to 158 nM.

For `Cc1cccc(-c2n[nH]cc2-c2ccc3ncc(C4C[C@H]5CC[C@@H](C4)N5)cc3n2)n1` (mixture of isomers) [Compound 350, 2-[3-(6-methyl-2-pyridyl)-1H-pyrazol-4-yl]-7-[rac-(1S,5R)-8-azabicyclo[3.2.1]octan-3-yl]-1,5-naphthyridine], in test [1] (ALK5 pKi), the Ki lay within 3.98 to 31.6 nM. The IC50 in test [2] (BEAS-2B) was 200 to 1260 nM.

In the case of `Cc1cccc(-c2n[nH]cc2-c2ccc3ncc(N4CC(N(C)C)C4)cc3n2)n1` [Compound 368, N,N-dimethyl-1-[6-[3-(6-methyl-2-pyridyl)-1H-pyrazol-4-yl]-1,5-naphthyridin-3-yl]azetidin-3-amine], the Ki in test [1] (read-out: ALK5 pKi (converted)) is less than 0.0316 nM. In addition, in test [2] (setting [3]), the IC50 is 25.1 to 158 nM.

Turning to `Cc1cccc(-c2[nH]cnc2-c2ccc3ncc(-c4csc(C(=O)O[C@H]5CC[C@@](C)(N)CC5)c4)cc3c2)n1` [Compound 1232, (4-amino-4-methyl-cyclohexyl) 4-[6-[5-(6-methyl-2-pyridyl)-1H-imidazol-4-yl]-3-quinolyl]thiophene-2-carboxylate], the Ki in test [1] (read-out: ALK5 pKi (converted)) was less than 0.0316 nM. Also, the IC50 in test [2] (setting [3]) is 25.1 to 158 nM.

Consider `Cc1nc(-c2n[nH]cc2-c2ccc3ncc(NCCN4CCCC4)cc3n2)ccc1F` [Compound 381, 6-[3-(5-fluoro-6-methyl-2-pyridyl)-1H-pyrazol-4-yl]-N-(2-pyrrolidin-1-ylethyl)-1,5-naphthyridin-3-amine], for which the Ki in test [1] (read-out: ALK5 pKi (converted)) is less than 0.0316 nM. The IC50 in test [2] (setting [3]) was 25.1 to 158 nM.

As to `Cc1cccc(-c2n[nH]cc2-c2ccc3ncc(-c4cnc5n4CCNC5)cc3n2)n1` [Compound 548, 2-[3-(6-methyl-2-pyridyl)-1H-pyrazol-4-yl]-7-(5,6,7,8-tetrahydroimidazo[1,2-a]pyrazin-3-yl)-1,5-naphthyridine], the Ki in test [1] (read-out: ALK5 pKi (converted)) is 0.0398 to 0.316 nM. For the same compound, the IC50 in test [2] (setting [3]) is 25.1 to 158 nM.

Take `Cc1nc(-c2nc3ccccn3c2-c2ccc3ncc(-c4cc5n(n4)CCNC5)cc3n2)ccc1F` [Compound 558, 2-[2-(5-fluoro-6-methyl-2-pyridyl)imidazo[1,2-a]pyridin-3-yl]-7-(4,5,6,7-tetrahydropyrazolo[1,5-a]pyrazin-2-yl)-1,5-naphthyridine]: the Ki in test [1] (read-out: ALK5 pKi (converted)) was 0.0398 to 0.316 nM. The IC50 in test [2] (setting [3]) is 25.1 to 158 nM.

As to `Cc1cccc(-c2[nH]cnc2-c2ccc3ncc(C(=O)OCCN4CCC5NCCC5C4)cc3c2)n1` (stereo not drawn) [Compound 1065, 2-(1,2,3,3a,4,6,7,7a-octahydropyrrolo[3,2-c]pyridin-5-yl)ethyl 6-[5-(6-methyl-2-pyridyl)-1H-imidazol-4-yl]quinoline-3-carboxylate], the Ki in test [1] (read-out: ALK5 pKi (converted)) is 0.0398 to 0.316 nM. Moreover, in test [2] (setting [3]), the IC50 is 200 to 1260 nM.

Take `CNCCn1cc(-c2cnc3ccc(-c4c[nH]nc4-c4cccc(C)n4)nc3c2OC)cn1` [Compound 127, 2-[4-[4-methoxy-6-[3-(6-methyl-2-pyridyl)-1H-pyrazol-4-yl]-1,5-naphthyridin-3-yl]pyrazol-1-yl]-N-methyl-ethanamine]: in test [1] (read-out: ALK5 pKi (converted)), the Ki is less than 0.0316 nM. Also, in test [2] (setting [3]), the IC50 was 25.1 to 158 nM.
